Data: paper PMC6783499, “Heteroglycoclusters With Dual Nanomolar Affinities for the Lectins LecA and LecB From Pseudomonas aeruginosa” (Frontiers in Chemistry, 2019)
Values joined by “and” are separate entries in the source; they are usually repeats but may differ in a detail not shown here. Equal entries are not always repeated.

Target: T1, LecA (Pseudomonas aeruginosa, UniProt Q05097)
T1 construct: made in house; host or cells: Escherichia coli BL21(DE3)
Experiment: biochemical
Format: binding
Details: for –ΔH (binding enthalpy) / n (stoichiometry, glycocluster molecules per lectin monomer) / –ΔG / –ΔH / −TΔS: ITC; for n (stoichiometry, glycocluster molecules per lectin monomer) / –ΔG / –ΔH / −TΔS: 25°C; for n (stoichiometry, glycocluster molecules per lectin monomer): pH 7.5; for –ΔG / –ΔH / −TΔS: per mole of glycocluster; for α (relative potency compared to the monovalent compound) / β (relative potency per sugar unit): relative to βGal-OMe
Protocol: The resulting hGCs were tested in solution with lectins by Isothermal Titration Calorimetry (Table 1) and their binding properties were compared with homoclusters 15–20 (Berthet et al., [2013]; Thomas et al., [2015b]) displaying either 4 and 16 βGal or αFuc units attached with an oxime or a triazole linker (Figure 3). […] Experiments were performed in direct injection mode (i.e., ligand in syringe and protein in cell) to minimize aggregation problems.
All chemical reagents were purchased from Aldrich (Saint Quentin Fallavier, France) or Acros (Noisy-Le-Grand, France). All protected amino acids and Fmoc-Gly-Sasrin® resin was obtained from Advanced ChemTech Europe (Brussels, Belgium). For peptides and glycopeptides, analytical RP-HPLC was performed on Waters system equipped with a Waters 2695 separations module and a Waters 2487 Dual Absorbance UV/Visible Detector. Analysis was carried out at 1.0 mL/min (EC 125/3 nucleosil 300-5 C18) with UV monitoring at 214 nm and 250 nm using a linear A–B gradient (buffer A: 0.09% CF3CO2H in water; buffer B: 0.09% CF3CO2H in 90% acetonitrile). Purifications were carried out at 22.0 mL/min (VP 250/21 nucleosil 100-7 C18) with UV monitoring at 214 nm and 250 nm using a linear A–B gradient. HRMS and ESI-MS and HRMS spectra of peptides and glycopeptides were measured on an Esquire 3000 spectrometer from Bruker. Lectins LecA and LecB were produced in recombinant form in Escherichia coli BL21(DE3) as described previously (Mitchell et al., [2005]; Blanchard et al., [2008]).
Other compounds were assayed with a VP-ITC isothermal titration calorimeter (Microcal). The experiments were carried out at 25°C. All glycocompounds and lectins LecB and LecA were dissolved in the same buffer composed of 20 mM Tris with 100 mM NaCl and 0.1 mM CaCl2 at pH 7.5. For PEAQ-ITC, the lectins were placed in the microcalorimeter cell (200 μL) at concentrations varying from 35 to 70 μM. […] For VP-ITC, the microcalorimeter cell (1.447 mL) contained the lectins with concentrations between 30 and 100 μM. […] The experimental data were fitted to a theoretical titration curve using the Microcal PEAQ-ITC analysis software, with ΔH (enthalpy change), Ka (association constant), and N (number of binding sites per monomer) as adjustable parameters. Dissociation constant (Kd), free energy change (ΔG), and entropy contributions (TΔS) were derived from the previous ones. Two or three independent titrations were performed for each ligand tested.

T1 sequence (Q05097 whole entry): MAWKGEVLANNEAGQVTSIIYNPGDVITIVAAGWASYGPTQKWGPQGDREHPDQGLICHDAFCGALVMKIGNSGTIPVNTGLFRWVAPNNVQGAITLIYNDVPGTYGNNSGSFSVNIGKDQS

| SMILES | Kd [nM] | –ΔH (binding enthalpy) (LecA) [kcal/mol] | n (stoichiometry, glycocluster molecules per lectin monomer) (LecA) | –ΔG (LecA) [kcal/mol] | –ΔH (LecA) [kcal/mol] | −TΔS (LecA) [kcal/mol] | α (relative potency compared to the monovalent compound) (LecA) | β (relative potency per sugar unit) (LecA) | lower β factor than 18 (LecA, 20 versus 18) | binding to LecA in words (LecA, abstract) |
| --- | --- | --- | --- | --- | --- | --- | --- | --- | --- | --- |
| C[C@@H]1NC(=O)[C@H](CCCCNC(=O)/C=N/O[C@H]2O[C@H](CO)[C@@H](O)[C@H](O)[C@@H]2O)NC(=O)CNC(=O)[C@@H]2CCCN2C(=O)[C@H](CCCCNC(=O)/C=N/O[C@H]2O[C@H](CO)[C@@H](O)[C@H](O)[C@@H]2O)NC(=O)[C@H](CCCCNC(=O)CO/N=C/C(=O)NCCCC[C@@H]2NC(=O)CNC(=O)[C@@H]3CCCN3C(=O)[C@H](CCCCNC(=O)/C=N/OCC(=O)NCCCC[C@@H]3NC(=O)[C@H](CCCCNC(=O)/C=N/O[C@H]4O[C@H](CO)[C@@H](O)[C@H](O)[C@@H]4O)NC(=O)CNC(=O)[C@@H]4CCCN4C(=O)[C@H](CCCCNC(=O)/C=N/O[C@H]4O[C@H](CO)[C@@H](O)[C@H](O)[C@@H]4O)NC(=O)[C@H](C)NC(=O)[C@H](CCCCNC(=O)/C=N/O[C@H]4O[C@H](CO)[C@@H](O)[C@H](O)[C@@H]4O)NC(=O)CNC(=O)[C@@H]4CCCN4C(=O)[C@H](CCCCNC(=O)/C=N/O[C@H]4O[C@H](CO)[C@@H](O)[C@H](O)[C@@H]4O)NC3=O)NC(=O)[C@H](CCCCN)NC(=O)[C@H](CCCCNC(=O)CO/N=C/C(=O)NCCCC[C@@H]3NC(=O)[C@H](CCCCn4cc(CO[C@@H]5O[C@H](CO)[C@H](O)[C@H](O)[C@H]5O)nn4)NC(=O)CNC(=O)[C@@H]4CCCN4C(=O)[C@H](CCCCn4cc(CO[C@@H]5O[C@H](CO)[C@H](O)[C@H](O)[C@H]5O)nn4)NC(=O)[C@H](C)NC(=O)[C@H](CCCCn4cc(CO[C@@H]5O[C@H](CO)[C@H](O)[C@H](O)[C@H]5O)nn4)NC(=O)CNC(=O)[C@@H]4CCCN4C(=O)[C@H](CCCCn4cc(CO[C@@H]5O[C@H](CO)[C@H](O)[C@H](O)[C@H]5O)nn4)NC3=O)NC(=O)CNC(=O)[C@@H]3CCCN3C(=O)[C@H](CCCCNC(=O)CO/N=C/C(=O)NCCCC[C@@H]3NC(=O)[C@H](CCCCn4cc(CO[C@@H]5O[C@H](CO)[C@H](O)[C@H](O)[C@H]5O)nn4)NC(=O)CNC(=O)[C@@H]4CCCN4C(=O)[C@H](CCCCn4cc(CO[C@@H]5O[C@H](CO)[C@H](O)[C@H](O)[C@H]5O)nn4)NC(=O)[C@H](C)NC(=O)[C@H](CCCCn4cc(CO[C@@H]5O[C@H](CO)[C@H](O)[C@H](O)[C@H]5O)nn4)NC(=O)CNC(=O)[C@@H]4CCCN4C(=O)[C@H](CCCCn4cc(CO[C@@H]5O[C@H](CO)[C@H](O)[C@H](O)[C@H]5O)nn4)NC3=O)NC(=O)[C@H](C)NC2=O)NC(=O)[C@H](CCCCNC(=O)/C=N/O[C@H]2O[C@H](CO)[C@@H](O)[C@H](O)[C@@H]2O)NC(=O)CNC(=O)[C@@H]2CCCN2C(=O)[C@H](CCCCNC(=O)/C=N/O[C@H]2O[C@H](CO)[C@@H](O)[C@H](O)[C@@H]2O)NC1=O [Compound 14] | 21 ± 4 | 51.6 to 58.1 | 0.16 | 10.5 | 58.13 ± 4.54 | 47.6 | 7,142 | 900 and 893 | – | – |
| C[C@@H]1NC(=O)[C@H](CCCCn2cc(CO[C@@H]3O[C@H](CO)[C@H](O)[C@H](O)[C@H]3O)nn2)NC(=O)CNC(=O)[C@@H]2CCCN2C(=O)[C@H](CCCCn2cc(CO[C@@H]3O[C@H](CO)[C@H](O)[C@H](O)[C@H]3O)nn2)NC(=O)[C@H](CCCCN)NC(=O)[C@H](CCCCn2cc(CO[C@@H]3O[C@H](CO)[C@H](O)[C@H](O)[C@H]3O)nn2)NC(=O)CNC(=O)[C@@H]2CCCN2C(=O)[C@H](CCCCn2cc(CO[C@@H]3O[C@H](CO)[C@H](O)[C@H](O)[C@H]3O)nn2)NC1=O [Compound 18] | – | – | 0.26 | 10.5 | 33.22 ± 0.24 | 22.8 | 7,000 and 6,818 | 1,700 and 1,705 | – | – |
| C[C@@H]1NC(=O)[C@H](CCCCNC(=O)/C=N/OCC(=O)NCCCC[C@@H]2NC(=O)[C@H](CCCCn3cc(CO[C@@H]4O[C@H](CO)[C@H](O)[C@H](O)[C@H]4O)nn3)NC(=O)CNC(=O)[C@@H]3CCCN3C(=O)[C@H](CCCCn3cc(CO[C@@H]4O[C@H](CO)[C@H](O)[C@H](O)[C@H]4O)nn3)NC(=O)[C@H](C)NC(=O)[C@H](CCCCn3cc(CO[C@@H]4O[C@H](CO)[C@H](O)[C@H](O)[C@H]4O)nn3)NC(=O)CNC(=O)[C@@H]3CCCN3C(=O)[C@H](CCCCn3cc(CO[C@@H]4O[C@H](CO)[C@H](O)[C@H](O)[C@H]4O)nn3)NC2=O)NC(=O)CNC(=O)[C@@H]2CCCN2C(=O)[C@H](CCCCNC(=O)/C=N/OCC(=O)NCCCC[C@@H]2NC(=O)[C@H](CCCCn3cc(CO[C@@H]4O[C@H](CO)[C@H](O)[C@H](O)[C@H]4O)nn3)NC(=O)CNC(=O)[C@@H]3CCCN3C(=O)[C@H](CCCCn3cc(CO[C@@H]4O[C@H](CO)[C@H](O)[C@H](O)[C@H]4O)nn3)NC(=O)[C@H](C)NC(=O)[C@H](CCCCn3cc(CO[C@@H]4O[C@H](CO)[C@H](O)[C@H](O)[C@H]4O)nn3)NC(=O)CNC(=O)[C@@H]3CCCN3C(=O)[C@H](CCCCn3cc(CO[C@@H]4O[C@H](CO)[C@H](O)[C@H](O)[C@H]4O)nn3)NC2=O)NC(=O)[C@H](CCCCN)NC(=O)[C@H](CCCCNC(=O)/C=N/OCC(=O)NCCCC[C@@H]2NC(=O)[C@H](CCCCn3cc(CO[C@@H]4O[C@H](CO)[C@H](O)[C@H](O)[C@H]4O)nn3)NC(=O)CNC(=O)[C@@H]3CCCN3C(=O)[C@H](CCCCn3cc(CO[C@@H]4O[C@H](CO)[C@H](O)[C@H](O)[C@H]4O)nn3)NC(=O)[C@H](C)NC(=O)[C@H](CCCCn3cc(CO[C@@H]4O[C@H](CO)[C@H](O)[C@H](O)[C@H]4O)nn3)NC(=O)CNC(=O)[C@@H]3CCCN3C(=O)[C@H](CCCCn3cc(CO[C@@H]4O[C@H](CO)[C@H](O)[C@H](O)[C@H]4O)nn3)NC2=O)NC(=O)CNC(=O)[C@@H]2CCCN2C(=O)[C@H](CCCCNC(=O)/C=N/OCC(=O)NCCCC[C@@H]2NC(=O)[C@H](CCCCn3cc(CO[C@@H]4O[C@H](CO)[C@H](O)[C@H](O)[C@H]4O)nn3)NC(=O)CNC(=O)[C@@H]3CCCN3C(=O)[C@H](CCCCn3cc(CO[C@@H]4O[C@H](CO)[C@H](O)[C@H](O)[C@H]4O)nn3)NC(=O)[C@H](C)NC(=O)[C@H](CCCCn3cc(CO[C@@H]4O[C@H](CO)[C@H](O)[C@H](O)[C@H]4O)nn3)NC(=O)CNC(=O)[C@@H]3CCCN3C(=O)[C@H](CCCCn3cc(CO[C@@H]4O[C@H](CO)[C@H](O)[C@H](O)[C@H]4O)nn3)NC2=O)NC1=O [Compound 20] | – | 90.3 | 0.09 | 10.7 | 90.49 ± 3.59 | 79.78 | 10,000 and 10,714 | 670 | 2.5 | nanomolar affinity |
| CO[C@@H]1O[C@H](CO)[C@H](O)[C@H](O)[C@H]1O [βGal-OMe, methyl β-D-galactoside] | – | – | – | – | – | – | 1 | 1 | – | – |
